pIC50: −log10 of the molar value. Counter-ions that a name gives are not always drawn. Like-named read-outs stand apart in the source and are kept apart here.
How the values were obtained:
Jarid1B = Jarid1B (Homo sapiens (Human), UniProt Q9UGL1); assay: Jarid1B in vitro enzyme inhibition assay (TR-FRET); format: biochemical
Jarid1A = Jarid1A (Homo sapiens (Human), UniProt P29375); assay: Jarid1A in vitro enzyme inhibition assay (TR-FRET); format: biochemical
KDM5A/B = assay: In vitro cell-based assay: tri-methyl H3K4 immuno-blotting in ZR-75-1 breast cancer cells
Procedure: This quantitative immuno-blotting assay measures the amount tri-methylated histone H3 at amino acid Lysine number 4, a specific substrate […] of the direct enzymatic activity of the histone demethylases KDM5A and KDM5B from extracts of the ZR-75-1 breast cancer cell line.
This assay is a fluorometric immunoassay for the quantification of tri-methyl H3K4 extracted from cells treated with test compound and is used as a measure of the cellular inhibition of KDM5A/B.
Extracts were prepared containing all of the cellular histone material using detergent based lysis and sonication methods. These lysates were subsequently normalized for total protein content using a colorimetric bicinchonic acid assay (MicroBCA Pierce/Thermo Scientific). Normalized cell extracts were then subjected to typical immuno-blotting procedures using NuPage reagents (Life Technologies). Electrophoretically separated histones were then transferred and immobilized using polyvinylidene difluoride membrane (Immobilon-FL Millipore). The amount of tri-methylated lysine 4 of histone H3 was detected using an antibody specific to the tri-methylated state (Cell Signaling Technologies) and quantified on an infrared imager using a densitometry software package (Odyssey CLx, Image Studio, Li-Cor). This background subtracted densitometry value was reported as a ration of the GAPDH amount for that sample and then calculated as a percent of the DMSO treated sample. The software package XL-fit (IDBS) was then used to calculate a relative IC50 value for the dilution series of a given test compound according to the equation: fit=(D+((Vmax*(x^n))/((x^n)+(Km^n)))).

JMJD2C = JMJD2C (Homo sapiens (Human), UniProt Q9H3R0); assay: JMJD2C in vitro enzyme inhibition assay (TR-FRET); format: biochemical
JMJD2C, sequence (Q9H3R0 2-372): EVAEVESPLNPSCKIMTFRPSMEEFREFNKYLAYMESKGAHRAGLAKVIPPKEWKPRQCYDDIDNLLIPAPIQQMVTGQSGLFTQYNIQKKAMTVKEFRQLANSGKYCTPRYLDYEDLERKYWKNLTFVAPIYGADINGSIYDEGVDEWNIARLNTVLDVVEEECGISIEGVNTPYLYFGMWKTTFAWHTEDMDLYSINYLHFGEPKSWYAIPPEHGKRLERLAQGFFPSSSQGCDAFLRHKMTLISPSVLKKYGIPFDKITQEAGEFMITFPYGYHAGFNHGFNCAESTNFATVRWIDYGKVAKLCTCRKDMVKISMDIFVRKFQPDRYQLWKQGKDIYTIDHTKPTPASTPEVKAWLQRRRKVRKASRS

[1] = 72 hours, read-out: Cellular IC50
[2] = read-out: Cellular IC50, 72 hours

Jarid1A, sequence (P29375 1-1090): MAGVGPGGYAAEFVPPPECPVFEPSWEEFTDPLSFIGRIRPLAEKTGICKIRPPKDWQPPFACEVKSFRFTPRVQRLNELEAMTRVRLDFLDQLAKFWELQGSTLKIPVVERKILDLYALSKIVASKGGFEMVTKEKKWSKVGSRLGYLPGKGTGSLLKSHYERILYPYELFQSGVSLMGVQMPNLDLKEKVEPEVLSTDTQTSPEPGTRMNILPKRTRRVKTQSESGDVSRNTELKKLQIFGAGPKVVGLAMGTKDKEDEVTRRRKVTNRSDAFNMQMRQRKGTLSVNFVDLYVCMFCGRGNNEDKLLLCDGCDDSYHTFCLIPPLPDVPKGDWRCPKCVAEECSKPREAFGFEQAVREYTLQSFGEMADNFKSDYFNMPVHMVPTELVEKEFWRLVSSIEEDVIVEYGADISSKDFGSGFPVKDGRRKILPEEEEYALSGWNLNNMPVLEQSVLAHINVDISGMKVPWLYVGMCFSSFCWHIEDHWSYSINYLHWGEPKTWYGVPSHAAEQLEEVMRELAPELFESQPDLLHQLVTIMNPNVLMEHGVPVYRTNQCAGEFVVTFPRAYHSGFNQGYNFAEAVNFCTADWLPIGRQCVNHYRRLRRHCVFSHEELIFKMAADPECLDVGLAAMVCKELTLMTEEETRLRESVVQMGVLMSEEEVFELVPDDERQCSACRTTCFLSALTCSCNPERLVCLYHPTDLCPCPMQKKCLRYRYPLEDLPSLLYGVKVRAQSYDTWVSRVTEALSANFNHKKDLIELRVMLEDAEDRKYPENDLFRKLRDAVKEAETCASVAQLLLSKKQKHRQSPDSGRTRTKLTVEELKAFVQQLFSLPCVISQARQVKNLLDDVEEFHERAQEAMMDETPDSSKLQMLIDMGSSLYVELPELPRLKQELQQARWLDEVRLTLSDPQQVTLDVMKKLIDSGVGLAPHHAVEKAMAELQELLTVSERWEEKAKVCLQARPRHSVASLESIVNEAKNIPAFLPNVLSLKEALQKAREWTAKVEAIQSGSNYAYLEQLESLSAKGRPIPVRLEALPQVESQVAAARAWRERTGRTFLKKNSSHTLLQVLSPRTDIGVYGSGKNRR
Jarid1B, sequence (Q9UGL1 2-751): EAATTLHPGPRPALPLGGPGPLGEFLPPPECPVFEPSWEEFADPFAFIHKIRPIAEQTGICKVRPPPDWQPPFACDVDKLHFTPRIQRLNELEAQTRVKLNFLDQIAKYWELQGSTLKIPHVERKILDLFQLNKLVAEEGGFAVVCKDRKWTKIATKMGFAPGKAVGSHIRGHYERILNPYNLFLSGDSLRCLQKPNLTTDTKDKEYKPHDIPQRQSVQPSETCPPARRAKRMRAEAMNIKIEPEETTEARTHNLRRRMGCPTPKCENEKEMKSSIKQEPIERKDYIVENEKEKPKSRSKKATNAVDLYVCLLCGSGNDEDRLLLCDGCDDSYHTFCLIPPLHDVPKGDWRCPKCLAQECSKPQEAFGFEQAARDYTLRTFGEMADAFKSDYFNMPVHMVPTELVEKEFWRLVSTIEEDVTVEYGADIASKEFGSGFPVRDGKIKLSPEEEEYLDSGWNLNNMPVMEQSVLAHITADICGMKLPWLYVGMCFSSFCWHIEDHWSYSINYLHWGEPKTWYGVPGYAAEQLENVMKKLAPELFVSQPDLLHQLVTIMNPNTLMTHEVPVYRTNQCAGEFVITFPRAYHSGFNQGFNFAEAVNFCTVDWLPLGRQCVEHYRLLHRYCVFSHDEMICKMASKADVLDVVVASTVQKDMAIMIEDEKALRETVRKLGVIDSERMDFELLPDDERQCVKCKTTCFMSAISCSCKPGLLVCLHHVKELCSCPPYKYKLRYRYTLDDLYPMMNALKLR

pIC50 (Jarid1B)	pIC50 (Jarid1A)	pIC50 (KDM5A/B; [1])	pIC50 (JMJD2C)	SMILES	pIC50 (KDM5A/B; [2])
> 7.00	> 7.00	< 5.00	> 7.00	CN(C)CCOCCn1nc(Nc2cnccc2C(=O)O)c2cc(F)ccc21 [Example 27, 3-[(1-{2-[2-(dimethylamino)ethoxy]ethyl}-5-fluoro-1H-indazol-3-yl)amino]pyridine-4-carboxylic acid, acetic acid salt]	–
> 7.00	> 7.00	5.00 to 6.00	> 7.00	O=C(O)c1ccncc1Nc1nn(C2CCOC2)c2ccc(F)cc12 (centres unmarked) [Example 54, 3-{[5-fluoro-1-(tetrahydrofuran-3-yl)-1H-indazol-3-yl]amino}pyridine-4-carboxylic acid]	–
> 7.00	> 7.00	–	> 7.00	O=C(O)c1ccncc1Nc1noc2ccccc12 [Example 3, 3-(1,2-benzoxazol-3-ylamino]pyridine-4-carboxylic acid]	–
> 7.00	> 7.00	< 5.00	> 7.00	CN(C)CCOCCn1nc(Nc2cnccc2C(=O)O)c2ccccc21 [Example 11, 3-[(1-{2-[2-(dimethylamino)ethoxy]ethyl}-1H-indazol-3-yl)amino]pyridine-4-carboxylic acid]	–
> 7.00	> 7.00	6.00 to 7.00	> 7.00	O=C(O)c1ccncc1Nc1nn(CCN2CCC(F)(F)CC2)c2ccc(F)cc12 [Example 73, 3-({1-[2-(4,4-difluoropiperidin-1yl)ethyl]-5-fluoro-1H-indazol-3-yl}amino)pyridine-4-carboxylic acid]	–
> 7.00	> 7.00	5.00 to 6.00	> 7.00	Cn1nc(Nc2cnccc2C(=O)O)c2cc(F)ccc21 [Example 7, 3-[(5-fluoro-1-methyl-1H-indazol-3-yl)amino]pyridine-4-carboxylic acid]	–
> 7.00	> 7.00	5.00 to 6.00	> 7.00	O=C(O)c1ccncc1Nc1nn([C@H]2CCOC2)c2ccc(F)cc12 [Example 66, 3-({5-fluoro-1-[(3S)-tetrahydrofuran-3-yl]-1H-indazol-3-yl}amino)pyridine-4-carboxylic acid]	–
> 7.00	> 7.00	5.00 to 6.00	> 7.00	Cn1nc(Nc2cnccc2C(=O)O)c2ccccc21 [Example 1, 3-[(1-methyl-1H-indazol-3-yl)amino]pyridine-4-carboxylic acid]	–
> 7.00	> 7.00	–	> 7.00	Cn1nc(Nc2cnccc2C(=O)O)c2c(F)cccc21 [Example 13, 3-[(4-fluoro-1-methyl-1H-indazol-3-yl)amino]pyridine-4-carboxylic acid]	–
> 7.00	> 7.00	5.00 to 6.00	> 7.00	O=C(O)c1ccncc1Nc1nn(CCCO)c2ccc(F)cc12 [Example 42, 3-{[5-fluoro-1-(3-hydroxypropyl)-1H-indazol-3-yl]amino}pyridine-4-carboxylic acid]	–
> 7.00	> 7.00	< 5.00	> 7.00	COCCCn1nc(Nc2cnccc2C(=O)O)c2cc(F)ccc21 [Example 17, 3-{[5-fluoro-1-(methoxypropyl)-1H-indazol-3-yl]amino}pyridine-4-carboxylic acid]	–
> 7.00	> 7.00	–	> 7.00	O=C(O)c1ccncc1Nc1nn(CCN2CCOCC2)c2ccc(F)cc12 [Example 56, 3-({5-fluoro-1-[2-(morpholin-1-yl)ethyl]-1H-indazol-3-yl}amino)pyridine-4-carboxylic acid]	–
> 7.00	> 7.00	–	> 7.00	O=C(O)c1ccncc1Nc1nn(CC(O)C(F)(F)F)c2ccc(F)cc12 (centres unmarked) [Example 55, 3-{[5-fluoro-1-(3,3,3-trifluoro-2-hydroxypropyl)-1H-indazol-3-yl]amino}pyridine-4-carboxylic acid]	–
> 7.00	> 7.00	–	> 7.00	O=C(O)c1ccncc1Nc1nn(CCCCCO)c2ccc(F)cc12 [Example 44, 3-{[5-fluoro-1-(5-hydroxypentyl)-1H-indazol-3-yl]amino}pyridine-4-carboxylic acid]	–
> 7.00	> 7.00	–	> 7.00	O=C(O)c1ccncc1Nc1nn(CCN2CCCC2)c2ccc(Cl)cc12 [Example 78, 3-({5-chloro-1-[2-(pyrrolidin-1-yl)ethyl]-1H-indazol-3-yl}amino)pyridine-4-carboxylic acid]	–
> 7.00	> 7.00	5.00 to 6.00	> 7.00	O=C(O)c1ccncc1Nc1nn([C@@H]2CCOC2)c2ccc(F)cc12 [Example 67, 3-({5-fluoro-1-[(3R)-tetrahydrofuran-3-yl]-1H-indazol-3-yl}amino)pyridine-4-carboxylic acid]	–
> 7.00	> 7.00	–	> 7.00	N#CNC(=O)c1ccncc1Nc1nn(CCN2CCCC2)c2ccc(F)cc12 [Example 77, N-cyano-3-({5-fluoro-1-[2-(pyrrolidin-1-yl)ethyl]-1H-indazol-3-yl}amino)pyridine-4-carboxamide]	–
> 7.00	> 7.00	6.00 to 7.00	–	CCCn1nc(Nc2cnccc2C(=O)O)c2ccccc21 [Example 9, 3-[(1-propyl-1H-indazol-3-yl)amino]pyridine-4-carboxylic acid]	–
> 7.00	> 7.00	5.00 to 6.00	–	O=C(O)c1ccncc1Nc1nn(CC2CC2)c2ccc(Cl)cc12 [Example 34, 3-{[5-chloro-1-(cyclopropylmethyl)-1H-indazol-3-yl]amino}pyridine-4-carboxylic acid]	–
> 7.00	> 7.00	5.00 to 6.00	–	O=C(O)c1ccncc1Nc1nn(CC2CCCO2)c2ccc(F)cc12 (centres unmarked) [Example 21, 3-{[5-fluoro-1-(tetrahydrofuran-2-ylmethyl)-1H-indazol-3-yl]amino}pyridine-4-carboxylic acid]	–
> 7.00	> 7.00	5.00 to 6.00	–	O=C(O)c1ccncc1Nc1nn(CCC2CC2)c2ccc(F)cc12 [Example 31, 3-{[1-(cyclopropylethyl)-5-fluoro-1H-indazol-3-yl]amino}pyridine-4-carboxylic acid]	–
> 7.00	> 7.00	6.00 to 7.00	–	O=C(O)c1ccncc1Nc1nn(CCC(F)(F)F)c2ccc(F)cc12 [Example 32, 3-{[5-fluoro-1-(3,3,3-trifluoropropyl)-1H-indazol-3-yl]amino}pyridine-4-carboxylic acid]	–
> 7.00	> 7.00	5.00 to 6.00	–	CCC(C)n1nc(Nc2cnccc2C(=O)O)c2cc(F)ccc21 (centres unmarked) [Example 26, 3-{[5-fluoro-1-(butan-2-yl)-1H-indazol-3-yl]amino}pyridine-4-carboxylic acid]	–
> 7.00	> 7.00	5.00 to 6.00	–	O=C(O)c1ccncc1Nc1nn(CC2CCCC2)c2ccc(F)cc12 [Example 30, 3-{[1-(cyclopentylmethyl)-5-fluoro-1H-indazol-3-yl]amino}pyridine-4-carboxylic acid]	–
> 7.00	> 7.00	6.00 to 7.00	–	Cn1nc(Nc2cnccc2C(=O)O)c2cc(Cl)ccc21 [Example 4, 3-[(5-chloro-1-methyl-1H-indazol-3-yl)amino]pyridine-4-carboxylic acid]	–
> 7.00	> 7.00	5.00 to 6.00	–	COc1ccc2c(Nc3cnccc3C(=O)O)nn(C)c2c1 [Example 8, 3-[(6-methoxy-1-methyl-1H-indazol-3-yl)amino]pyridine-4-carboxylic acid]	–

SMILES	pIC50 (Jarid1B)	pIC50 (Jarid1A)	pIC50 (KDM5A/B; [1])	pIC50 (JMJD2C)	pIC50 (KDM5A/B; [2])
CN1CCC(CCn2nc(Nc3cnccc3C(=O)O)c3cc(F)ccc32)CC1 [Example 41, 3-({5-fluoro-1-{2-(1-methylpiperidin-4-yl)ethyl]-1H-indazol-3-yl]amino)pyridine-4-carboxylic acid, trifluroacetic acid salt]	> 7.00	> 7.00	–	> 7.00	–
O=C(O)c1ccncc1Nc1nn(CCC2CCCNC2)c2ccc(F)cc12 (centres unmarked) [Example 47, 3-({5-fluoro-1-[2-(piperidin-3-yl)ethyl]-1H-indazol-3-yl}amino)pyridine-4-carboxylic acid, trifluoroacetic acid salt]	> 7.00	> 7.00	–	> 7.00	< 5.00
CN(C)CCCCn1nc(Nc2cnccc2C(=O)O)c2cc(F)ccc21 [Example 43, 3-({1-[4-(dimethylamino)butyl]-5-fluoro-1H-indazol-3-yl}amino)pyridine-4-carboxylic acid, trifluoroacetic acid salt]	> 7.00	> 7.00	–	> 7.00	5.00 to 6.00
CN(C)CCOCCn1nc(Nc2cnccc2C(=O)O)c2cc(Cl)ccc21 [Example 40, 3-[(1-{2-[2-(dimethylamino)ethoxy]ethyl}-5-chloro-1H-indazol-3-yl)amino]pyridine-4-carboxylic acid, trifluoroacetic acid salt]	> 7.00	> 7.00	–	> 7.00	–
CCCn1nc(Nc2cnccc2C(=O)O)c2cccc(C)c21 [Example 45]	–	–	5.00 to 6.00	6.00 to 7.00	–

Reference: patent US9617242B2, “Histone demethylase inhibitors” (priority 2012, dated 2017)
